Numbers after ± are expanded uncertainties.
Test: xn = mol fraction of the nth substance listed
Details: 101 kPa, Liquid; for speed of sound: Sing-around technique in a fixed-path interferometer; for mass density: Vibrating tube method

CCC(O)CO (stereo not given) [1,2-butanediol] + OCc1ccccc1
speed of sound (298.15 K, x2 = 0): 1452.6 ± 1.3 m/s
speed of sound (298.15 K, x2 = 0.1): 1460.7 ± 1.3 m/s
speed of sound (298.15 K, x2 = 0.2): 1469.2 ± 1.3 m/s
speed of sound (298.15 K, x2 = 0.3): 1477.2 ± 1.3 m/s
speed of sound (298.15 K, x2 = 0.4): 1485.3 ± 1.3 m/s
speed of sound (298.15 K, x2 = 0.5): 1493.2 ± 1.3 m/s
speed of sound (298.15 K, x2 = 0.6): 1500.6 ± 1.3 m/s
speed of sound (298.15 K, x2 = 0.7): 1507.6 ± 1.3 m/s
speed of sound (298.15 K, x2 = 0.8): 1514 ± 1.3 m/s
speed of sound (298.15 K, x2 = 0.9): 1519.9 ± 1.3 m/s
mass density (298.15 K, x2 = 0): 998.492 ± 0.23 kg/m3
mass density (298.15 K, x2 = 0.1): 1003.29 ± 0.23 kg/m3
mass density (298.15 K, x2 = 0.2): 1007.97 ± 0.24 kg/m3
mass density (298.15 K, x2 = 0.3): 1012.52 ± 0.24 kg/m3
mass density (298.15 K, x2 = 0.4): 1016.95 ± 0.24 kg/m3
mass density (298.15 K, x2 = 0.5): 1021.24 ± 0.25 kg/m3
mass density (298.15 K, x2 = 0.6): 1025.4 ± 0.25 kg/m3
mass density (298.15 K, x2 = 0.7): 1029.45 ± 0.26 kg/m3
mass density (298.15 K, x2 = 0.8): 1033.41 ± 0.26 kg/m3
mass density (298.15 K, x2 = 0.9): 1037.31 ± 0.26 kg/m3
speed of sound (303.15 K, x2 = 0): 1438.2 ± 1.3 m/s
speed of sound (303.15 K, x2 = 0.1): 1445.9 ± 1.3 m/s
speed of sound (303.15 K, x2 = 0.2): 1454.3 ± 1.3 m/s
speed of sound (303.15 K, x2 = 0.3): 1462.1 ± 1.3 m/s
speed of sound (303.15 K, x2 = 0.4): 1470.3 ± 1.3 m/s
speed of sound (303.15 K, x2 = 0.5): 1478 ± 1.3 m/s
speed of sound (303.15 K, x2 = 0.6): 1485.2 ± 1.3 m/s
speed of sound (303.15 K, x2 = 0.7): 1491.7 ± 1.3 m/s
speed of sound (303.15 K, x2 = 0.8): 1498 ± 1.3 m/s
speed of sound (303.15 K, x2 = 0.9): 1503.9 ± 1.3 m/s
mass density (303.15 K, x2 = 0): 994.744 ± 0.23 kg/m3
mass density (303.15 K, x2 = 0.1): 999.491 ± 0.23 kg/m3
mass density (303.15 K, x2 = 0.2): 1004.13 ± 0.23 kg/m3
mass density (303.15 K, x2 = 0.3): 1008.65 ± 0.24 kg/m3
mass density (303.15 K, x2 = 0.4): 1013.06 ± 0.24 kg/m3
mass density (303.15 K, x2 = 0.5): 1017.34 ± 0.25 kg/m3
mass density (303.15 K, x2 = 0.6): 1021.49 ± 0.25 kg/m3
mass density (303.15 K, x2 = 0.7): 1025.54 ± 0.25 kg/m3
mass density (303.15 K, x2 = 0.8): 1029.5 ± 0.26 kg/m3
mass density (303.15 K, x2 = 0.9): 1033.42 ± 0.26 kg/m3
speed of sound (308.15 K, x2 = 0): 1423.6 ± 1.3 m/s
speed of sound (308.15 K, x2 = 0.1): 1431.2 ± 1.3 m/s
speed of sound (308.15 K, x2 = 0.2): 1439.4 ± 1.3 m/s
speed of sound (308.15 K, x2 = 0.3): 1446.8 ± 1.3 m/s
speed of sound (308.15 K, x2 = 0.4): 1454.9 ± 1.3 m/s
speed of sound (308.15 K, x2 = 0.5): 1462.5 ± 1.3 m/s
speed of sound (308.15 K, x2 = 0.6): 1469.4 ± 1.3 m/s
speed of sound (308.15 K, x2 = 0.7): 1476 ± 1.3 m/s
speed of sound (308.15 K, x2 = 0.8): 1482.2 ± 1.3 m/s
speed of sound (308.15 K, x2 = 0.9): 1488.1 ± 1.3 m/s
mass density (308.15 K, x2 = 0): 990.956 ± 0.23 kg/m3
mass density (308.15 K, x2 = 0.1): 995.66 ± 0.23 kg/m3
mass density (308.15 K, x2 = 0.2): 1000.26 ± 0.23 kg/m3
mass density (308.15 K, x2 = 0.3): 1004.76 ± 0.23 kg/m3
mass density (308.15 K, x2 = 0.4): 1009.14 ± 0.24 kg/m3
mass density (308.15 K, x2 = 0.5): 1013.4 ± 0.24 kg/m3
mass density (308.15 K, x2 = 0.6): 1017.55 ± 0.25 kg/m3
mass density (308.15 K, x2 = 0.7): 1021.6 ± 0.25 kg/m3
mass density (308.15 K, x2 = 0.8): 1025.58 ± 0.25 kg/m3
mass density (308.15 K, x2 = 0.9): 1029.52 ± 0.25 kg/m3
speed of sound (313.15 K, x2 = 0): 1409.2 ± 1.3 m/s
speed of sound (313.15 K, x2 = 0.1): 1416.7 ± 1.3 m/s
speed of sound (313.15 K, x2 = 0.2): 1424.4 ± 1.3 m/s
speed of sound (313.15 K, x2 = 0.3): 1431.8 ± 1.3 m/s
speed of sound (313.15 K, x2 = 0.4): 1439.7 ± 1.3 m/s
speed of sound (313.15 K, x2 = 0.5): 1447.1 ± 1.3 m/s
speed of sound (313.15 K, x2 = 0.6): 1453.9 ± 1.3 m/s
speed of sound (313.15 K, x2 = 0.7): 1460.4 ± 1.3 m/s
speed of sound (313.15 K, x2 = 0.8): 1466.6 ± 1.3 m/s
speed of sound (313.15 K, x2 = 0.9): 1472.5 ± 1.3 m/s
mass density (313.15 K, x2 = 0): 987.136 ± 0.23 kg/m3
mass density (313.15 K, x2 = 0.1): 991.786 ± 0.23 kg/m3
mass density (313.15 K, x2 = 0.2): 996.372 ± 0.23 kg/m3
mass density (313.15 K, x2 = 0.3): 1000.84 ± 0.23 kg/m3
mass density (313.15 K, x2 = 0.4): 1005.2 ± 0.24 kg/m3
mass density (313.15 K, x2 = 0.5): 1009.46 ± 0.24 kg/m3
mass density (313.15 K, x2 = 0.6): 1013.6 ± 0.24 kg/m3
mass density (313.15 K, x2 = 0.7): 1017.66 ± 0.25 kg/m3
mass density (313.15 K, x2 = 0.8): 1021.64 ± 0.25 kg/m3
mass density (313.15 K, x2 = 0.9): 1025.6 ± 0.25 kg/m3
speed of sound (318.15 K, x2 = 0): 1394.6 ± 1.2 m/s
speed of sound (318.15 K, x2 = 0.1): 1401.9 ± 1.2 m/s
speed of sound (318.15 K, x2 = 0.2): 1409.5 ± 1.3 m/s
speed of sound (318.15 K, x2 = 0.3): 1416.7 ± 1.3 m/s
speed of sound (318.15 K, x2 = 0.4): 1424.3 ± 1.3 m/s
speed of sound (318.15 K, x2 = 0.5): 1431.4 ± 1.3 m/s
speed of sound (318.15 K, x2 = 0.6): 1438.2 ± 1.3 m/s
speed of sound (318.15 K, x2 = 0.7): 1444.8 ± 1.3 m/s
speed of sound (318.15 K, x2 = 0.8): 1451 ± 1.3 m/s
speed of sound (318.15 K, x2 = 0.9): 1456.9 ± 1.3 m/s
mass density (318.15 K, x2 = 0): 983.284 ± 0.23 kg/m3
mass density (318.15 K, x2 = 0.1): 987.894 ± 0.23 kg/m3
mass density (318.15 K, x2 = 0.2): 992.45 ± 0.23 kg/m3
mass density (318.15 K, x2 = 0.3): 996.891 ± 0.23 kg/m3
mass density (318.15 K, x2 = 0.4): 1001.24 ± 0.23 kg/m3
mass density (318.15 K, x2 = 0.5): 1005.48 ± 0.24 kg/m3
mass density (318.15 K, x2 = 0.6): 1009.62 ± 0.24 kg/m3
mass density (318.15 K, x2 = 0.7): 1013.68 ± 0.24 kg/m3
mass density (318.15 K, x2 = 0.8): 1017.69 ± 0.24 kg/m3
mass density (318.15 K, x2 = 0.9): 1021.67 ± 0.25 kg/m3
speed of sound (323.15 K, x2 = 0): 1380 ± 1.2 m/s
speed of sound (323.15 K, x2 = 0.1): 1387.2 ± 1.2 m/s
speed of sound (323.15 K, x2 = 0.2): 1394.3 ± 1.2 m/s
speed of sound (323.15 K, x2 = 0.3): 1401.7 ± 1.3 m/s
speed of sound (323.15 K, x2 = 0.4): 1409.1 ± 1.3 m/s
speed of sound (323.15 K, x2 = 0.5): 1416.2 ± 1.3 m/s
speed of sound (323.15 K, x2 = 0.6): 1423.1 ± 1.3 m/s
speed of sound (323.15 K, x2 = 0.7): 1429.5 ± 1.3 m/s
speed of sound (323.15 K, x2 = 0.8): 1435.7 ± 1.3 m/s
speed of sound (323.15 K, x2 = 0.9): 1441.6 ± 1.3 m/s
mass density (323.15 K, x2 = 0): 979.394 ± 0.23 kg/m3
mass density (323.15 K, x2 = 0.1): 983.969 ± 0.23 kg/m3
mass density (323.15 K, x2 = 0.2): 988.488 ± 0.23 kg/m3
mass density (323.15 K, x2 = 0.3): 992.923 ± 0.23 kg/m3
mass density (323.15 K, x2 = 0.4): 997.257 ± 0.23 kg/m3
mass density (323.15 K, x2 = 0.5): 1001.49 ± 0.23 kg/m3
mass density (323.15 K, x2 = 0.6): 1005.63 ± 0.24 kg/m3
mass density (323.15 K, x2 = 0.7): 1009.7 ± 0.24 kg/m3
mass density (323.15 K, x2 = 0.8): 1013.72 ± 0.24 kg/m3
mass density (323.15 K, x2 = 0.9): 1017.72 ± 0.24 kg/m3

Reference: the NIST ThermoML archive (doi:10.1021/je5009334)
